{"source": "patent US20070232492A1", "about": "“Herbicidal Composition” (Ishihara Sangyo Kaisha, LTD., priority 2004, published 2007)", "assay_type_in_all_cases": "in vivo", "key": {"[1]": {"tested_on": "rice (Oryza sativa var. Nihonbare)", "test": "Growth inhibition (phytotoxicity) of transplanted rice by compound A2 with or without compound D, application under submerged condition, visual rating 7 and 21 days after application", "details": "Compound A2 60 g/ha, Compound D not applied, applied 5 days after implantation", "source_text": "(§1) Growth inhibition rate (%)=0% (equivalent to the non-treated area) to 100% (complete kill)\nPaddy field soil was put into a 1/500,000 hectare pot, harrowed and irrigated with a depth of 3 cm. On the next day, rice (Oryza sativa var. Nihonbare) at 2 leaf stage was implanted with a depth of 3 cm. A wettable powder of compound A2 and a wettable powder of compound D were, respectively, diluted with water and applied under submerged condition 5 days after implantation so that the active ingredients became the prescribed amounts, respectively. The state of growth of rice was visually observed 7 days and 21 days after application, and the growth inhibition rate (%) was evaluated in the same is manner as in the above Test Example 1."}, "[2]": {"tested_on": "barnyardgrass (Echinochloa oryzicola vasing)", "test": "Growth inhibition of barnyardgrass in paddy soil pots, application under submerged condition, visual rating (observed value) and Colby expected value", "details": "for inhibition at 150 g/ha / inhibition at 300 g/ha / inhibition at 100 g/ha / inhibition at 200 g/ha: Echinochloa oryzicola, soil, 504 h; for inhibition at 150 g/ha: read-out: Growth inhibition rate (%) Observed, 1.5 g/a; for inhibition at 100 g/ha: 1 g/a; for inhibition at 100 g/ha / inhibition at 200 g/ha: read-out: Growth inhibition rate (%) Observed; for inhibition at 200 g/ha: 2 g/a", "procedure,_shortened": "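Barnyardgrass (Echinochloa oryzicola vasing) seeds were sown in paddy field soil in 1/10,000 are pots and kept irrigated at a water depth of 3.5 cm. Wettable powders of the active ingredients were diluted with water and applied under submerged conditions at the prescribed amounts. Growth was visually scored from 0% (as untreated) to 100% (complete kill), and expected values were calculated with Colby's formula.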"}, "[3]": {"tested_on": "barnyardgrass (Echinochloa oryzicola vasing)", "test": "Growth inhibition of barnyardgrass in paddy soil pots, foliar application with a small sprayer, visual rating and Colby expected value", "details": "3.0 to 3.3 leaf stage, 21 days after application", "source_text": "(§2) When the herbicidal activity in a case where two active ingredients are combined, is larger than the simple sum of the respective herbicidal activities of the two active ingredients (the expected activity), it is called a synergistic effect. The activity expected by the combination of two active ingredients can be calculated as follows (Colby S. R., “Weed”, vol. 15, p. 20-22, 1967). E=p+q−(p×q÷100) where p: growth inhibition rate when treated with x (g/a) of herbicide X,\n(§3) q: growth inhibition rate when treated with y (g/a) of herbicide Y,\n(§4) E: growth inhibition rate expected when treated with x (g/a) of herbicide X and y (g/a) of herbicide Y.\n(§5) Namely, when the actual growth inhibition rate (observed value) is larger than the growth inhibition rate by the above calculation (expected value), the activity by the combination can be regarded as showing a synergistic effect.\nas §1\nPaddy field soil was put into a 1/10,000 are pot, and seeds of barnyardgrass (Echinochloa oryzicola vasing) were sown and left to stand under an irrigated condition with a water depth of 3.5 cm. When barnyardgrass reached 3.0 to 3.3 leaf stage, a wettable powder of compound A2 and a water-based suspension of compound (B11.1) were, respectively, diluted with water in an amount of 1,000 liter/ha, followed by foliar application with a small sprayer. The state of growth was visually observed 21 days after application, and evaluation and calculation were carried out in the same manner as in the above Test Example 1."}, "[4]": {"tested_on": "false pimpernel (Lindernia pyxidaria), abunome (Dopatrium junceum), long stem waterwort (Elatine triandra SCHK.) and toothcup (Rotala india)", "test": "Growth inhibition of mixed broadleaf paddy weeds in paddy soil pots, application under submerged condition, visual rating and Colby expected value", "details": "0.22 g/a", "source_text": "as §2, §3, §4, §5, §1\n(§6) Paddy field soil was put into a 1/1,700 are pot, and mixed seeds of false pimpernel (Lindernia pyxidaria), abunome (Dopatrium junceum), long stem waterwort (Elatine triandra SCHK.) and toothcup (Rotala india) were sown and left to stand under an irrigated condition with a water depth of 3.5 cm. When false pimpernel reached one leaf-pair stage, wettable powders of compound A2 and compound (B1.2) were, respectively, diluted with water and applied under submerged condition so that the active ingredients became the prescribed amounts, respectively. The state of growth was visually observed 21 days after application, and evaluation and calculation were carried out in the same manner as in the above Test Example 1.\n(§7) Paddy field soil was put into a 1/1,700 are pot, and mixed seeds of false pimpernel (Lindernia pyxidaria), abunome (Dopatrium junceum), long stem waterwort (Elatine triandra SCHK.) and toothcup (Rotala india) were sown and left to stand under an irrigated condition with a water depth of 3.5 cm. When false pimpernel reached two leaf-pair stage, a wettable powder of compound A2 and an emulsifiable concentrate of compound (B8.1) were, respectively, diluted with water and applied under submerged condition so that the active ingredients became the prescribed amounts, respectively. The state of growth was visually observed 22 days after application, and evaluation and calculation were carried out in the same manner as in the above Test Example 1."}, "[5]": {"test": "Growth inhibition of mixed broadleaf paddy weeds in paddy soil pots, application under submerged condition, visual rating and Colby expected value", "details": "mixed broadleaf paddy weeds, soil, 528 h, read-out: Growth inhibition rate (%) Observed", "source_text": "as §2, §3, §4, §5, §1, §6, §7"}, "[6]": {"details": "2.0 to 2.5 leaf stage, 21 days after application"}, "[7]": {"details": "2.8 to 3.2 leaf stage, 21 days after application, Test Examples 39-43"}}, "note": "Where two headings read alike, the source gives them in different places.", "data": [{"smiles": "COCC(=O)OC(c1ncccc1S(=O)(=O)NC(=O)Nc1nc(OC)cc(OC)n1)C(C)F", "note": "(stereo not drawn) [Compound A2, flucetosulfuron]", "values": [{"measurement": "Growth inhibition rate (%) (average) 7 days", "setting": "[1]; 7 days after application", "result": 23, "unit": "%"}, {"measurement": "Growth inhibition rate (%) (average) 21 days", "setting": "[1]; 21 days after application", "result": 33, "unit": "%"}, {"measurement": "Growth inhibition rate (%) Observed", "setting": "[2]; 0.055 g/a, 2.8 to 3.2 leaf stage, 21 days after application", "result": 55, "unit": "%"}, {"measurement": "Growth inhibition rate (%) Observed", "setting": "[2]; 0.083 g/a, 2.1 to 3.2 leaf stage, 21 days after application", "result": 90, "unit": "%"}, {"measurement": "Growth inhibition rate (%) Observed", "setting": "[2]; 0.083 g/a, 2.1 to 3.2 leaf stage, 22 days after application", "result": 90, "unit": "%"}, {"measurement": "Growth inhibition rate (%) Observed", "setting": "[2]; 0.083 g/a, 2.5 to 3.0 leaf stage, 22 days after application", "result": 67, "unit": "%"}, {"measurement": "Growth inhibition rate (%) Observed", "setting": "[2]; 0.083 g/a, 2.8 to 3.2 leaf stage, 19 days after application, Test Examples 62-65", "result": 55, "unit": "%"}, {"measurement": "Growth inhibition rate (%) Observed", "setting": "[2]; 0.083 g/a, 2.8 to 3.2 leaf stage, 21 days after application", "result": 65, "unit": "%"}, {"measurement": "Growth inhibition rate (%) Observed", "setting": "[2]; 0.083 g/a, 2.8 to 3.2 leaf stage, 21 days after application, Test Examples 39-43", "result": 55, "unit": "%"}, {"measurement": "Growth inhibition rate (%) Observed", "setting": "[2]; 0.11 g/a, 2.0 to 2.5 leaf stage, 21 days after application", "result": 90, "unit": "%"}, {"measurement": "Growth inhibition rate (%) Observed", "setting": "[2]; 0.11 g/a, 2.1 to 3.2 leaf stage, 21 days after application", "result": 92, "unit": "%"}, {"measurement": "Growth inhibition rate (%) Observed", "setting": "[2]; 0.11 g/a, 2.1 to 3.2 leaf stage, 22 days after application", "result": 92, "unit": "%"}, {"measurement": "Growth inhibition rate (%) Observed", "setting": "[2]; 0.11 g/a, 2.4 to 3.2 leaf stage, 29 days after application, Test Example 45", "result": 96, "unit": "%"}, {"measurement": "Growth inhibition rate (%) Observed", "setting": "[2]; 0.11 g/a, 2.5 to 3.0 leaf stage, 22 days after application", "result": 83, "unit": "%"}, {"measurement": "Growth inhibition rate (%) Observed", "setting": "[2]; 0.11 g/a, 2.8 to 3.2 leaf stage, 19 days after application, Test Examples 62-65", "result": 68, "unit": "%"}, {"measurement": "Growth inhibition rate (%) Observed", "setting": "[2]; 0.11 g/a, 2.8 to 3.2 leaf stage, 21 days after application", "result": 75, "unit": "%"}, {"measurement": "Growth inhibition rate (%) Observed", "setting": "[2]; 0.11 g/a, 2.8 to 3.2 leaf stage, 21 days after application, Test Examples 39-43", "result": 70, "unit": "%"}, {"measurement": "Growth inhibition rate (%) Observed", "setting": "[2]; 0.165 g/a, 2.0 to 2.5 leaf stage, 21 days after application", "result": 90, "unit": "%"}, {"measurement": "Growth inhibition rate (%) Observed", "setting": "[2]; 0.165 g/a, 2.1 to 3.2 leaf stage, 21 days after application", "result": 96, "unit": "%"}, {"measurement": "Growth inhibition rate (%) Observed", "setting": "[2]; 0.165 g/a, 2.1 to 3.2 leaf stage, 22 days after application", "result": 96, "unit": "%"}, {"measurement": "Growth inhibition rate (%) Observed", "setting": "[2]; 0.165 g/a, 2.5 to 3.0 leaf stage, 22 days after application", "result": 89, "unit": "%"}, {"measurement": "Growth inhibition rate (%) Observed", "setting": "[2]; 0.165 g/a, 2.8 to 3.2 leaf stage, 19 days after application, Test Examples 62-65", "result": 73, "unit": "%"}, {"measurement": "Growth inhibition rate (%) Observed", "setting": "[2]; 8.3 g/ha, 3 leaf stage, 22 days after application, Test Example 36", "result": 67, "unit": "%"}, {"measurement": "Growth inhibition rate (%) Observed", "setting": "[2]; 8.3 g/ha, 3 leaf stage, 22 days after application, Test Example 38", "result": 83, "unit": "%"}, {"measurement": "Growth inhibition rate (%) Observed", "setting": "[2]; 11 g/ha, 3 leaf stage, 22 days after application, Test Example 36", "result": 83, "unit": "%"}, {"measurement": "Growth inhibition rate (%) Observed", "setting": "[2]; 11 g/ha, 3 leaf stage, 22 days after application, Test Example 38", "result": 96, "unit": "%"}, {"measurement": "Growth inhibition rate (%) Observed", "setting": "[2]; 16.5 g/ha, 3 leaf stage, 22 days after application, Test Example 36", "result": 89, "unit": "%"}, {"measurement": "Growth inhibition rate (%) Observed", "setting": "[2]; 16.5 g/ha, 3 leaf stage, 22 days after application, Test Example 38", "result": 98, "unit": "%"}, {"measurement": "Growth inhibition rate (%) Observed", "setting": "[3]; 0.083 g/a", "result": 23, "unit": "%"}, {"measurement": "Growth inhibition rate (%) Observed", "setting": "[3]; 0.11 g/a", "result": 50, "unit": "%"}, {"measurement": "Growth inhibition rate (%) Observed", "setting": "[3]; 0.165 g/a", "result": 60, "unit": "%"}, {"measurement": "Growth inhibition rate (%) Observed", "setting": "[4]; false pimpernel one leaf-pair stage, 21 days after application", "result": 90, "unit": "%"}, {"measurement": "Growth inhibition rate (%) Observed", "setting": "[4]; false pimpernel two leaf-pair stage, 22 days after application", "result": 65, "unit": "%"}]}, {"smiles": "CCS(=O)(=O)Oc1ccc2c(c1)C(C)(C)CO2", "note": "[Compound (B8.1), benfuresate]", "values": [{"measurement": "inhibition at 150 g/ha", "setting": "[2]; [6]", "result": 10, "unit": "%"}, {"measurement": "inhibition at 150 g/ha", "setting": "[2]; 3.0 to 3.3 leaf stage, 21 days after application", "result": 0, "unit": "%"}, {"measurement": "inhibition at 300 g/ha", "setting": "[2]; read-out: Growth inhibition rate (%) Observed, 3 g/a, 2.0 to 2.5 leaf stage, 21 days after application", "result": 33, "unit": "%"}, {"measurement": "inhibition at 300 g/ha", "setting": "[2]; read-out: Growth inhibition rate (%) Observed, 3.0 g/a, 3.0 to 3.3 leaf stage, 21 days after application", "result": 0, "unit": "%"}, {"measurement": "inhibition at 1200 g/ha", "setting": "[5]", "result": 70, "unit": "%"}]}, {"smiles": "CCCOCCN(C(=O)CCl)c1c(CC)cccc1CC", "note": "[Compound (B3.1), pretilachlor]", "values": [{"measurement": "inhibition at 100 g/ha", "setting": "[2]; [6]", "result": 17, "unit": "%"}, {"measurement": "inhibition at 100 g/ha", "setting": "[2]; [7]", "result": 0, "unit": "%"}, {"measurement": "inhibition at 200 g/ha", "setting": "[2]; [6]", "result": 33, "unit": "%"}, {"measurement": "inhibition at 200 g/ha", "setting": "[2]; [7]", "result": 0, "unit": "%"}]}]}
